Reference: patent US7507716B2, “Method for treating pain with prolactin antagonists” (Board of Regents, The University of Texas System, priority 2005, dated 2009)

Columns and labels:
[1] = system: gene expression in trigeminal ganglia; experiment: Affymetrix microarray of trigeminal ganglia RNA after estradiol administration; format: in vivo, rat; details: OVX rats, estradiol 80 μg/kg/10 days versus vehicle
Method: At the end of the 10th day, animals were used for behavioral experiments or sacrificed by decapitation and the TG of each individual animal were harvested. Harvested tissue was used for RNA isolation, total protein isolation, or for preparing primary cultures of TG neurons.
The ground tissue was used to isolate total RNA by the guanidinium thiocyanate method as described previously (Chomczynski and Sacchi, 1987). The isolated RNA was then treated with a DNA-free reagent (DNAse I; Ambion, Austin, Tex.) and submitted to the Microarray Core Facility at the University of Texas Health Science Center at San Antonio. Additional RNA sample aliquots were used as template for the quantitative real time RT-PCR experiments.
Microarray analysis: Target preparation, hybridization, staining, scanning and analysis of image: RNA samples derived from TG of OVX rats treated with a single dose (80 μg/kg per day) of E2 or vehicle (n=5 for each group) were prepared for hybridization to Affymetrix (Santa Clara, Calif.) RG-U34A arrays according to the manufacturer's instructions. Total RNA was used as a template for double-stranded cDNA synthesis (Superscript Double-Stranded cDNA Synthesis kit, Invitrogen, Carlsbad, Calif.), which was used as a template for biotin-labeled cRNA synthesis (Enzo BioArray High Yield RNA Transcription Labeling Kit, Affymetrix). Purified (RNeasy kit, Qiagen, Valencia, Calif.) labeled-cRNA was hybridized to the rat genomic RG-U34A GeneChips for 16 h at 45° C. Following hybridization, the probe arrays were washed and stained using the GeneChip Fluidics station protocol EukGE-ES2. The intensity of bound dye was measured with an argon laser confocal scanner (GeneArray Scanner, Agilent, Palo Alto, Calif.). The probe arrays were scanned twice and the stored images were aligned and analyzed using the GeneClip software Micro array Analysis Suite (MAS) 5.0 (Affymetrix, Santa Clara, Calif.). Data were imported into the GeneSpring 5.1 software (Silicon Genetics, Redwood City, Calif.) and a list of genes of relative expression of ≧1.5 and ≧0.5 fold was obtained. The data were imported into the R software package and the probe level data were converted to expression measures using the Affy package (Bolstad et al., 2003) from Bioconductor. Expression values for each mRNA were obtained by the Robust Multi-array Analysis (RMA) method as described elsewhere (Boistad et al., 2003).

TG neurons = experiment: Patch clamp, heat-evoked currents (Iheat); format: cell-based, rat; details: neurons from intact female rats
Method: TRPV1 is known to be activated by noxious heat (>42° C). Furthermore, this effect is itself sensitized by hyperalgesic agents such as bradykinin (Cesare et al., 1999) and NGF (Chuang et al., 2001; Zhu et al., 2004). To determine whether PRL sensitizes heat-evoked currents (Iheat), the effect that pre-treatment of intact female rat TG neurons with PRL has on Iheat was examined. […] Data are presented as mean±SEM (n=8-12/group, ***=p<0.001 versus vehicle control; two-tailed unpaired T test). […] (FIG. 6B) and 48° C. (FIG. 6C). Data are presented as mean±SEM (n=8-12/group, ***=p<0.001 versus vehicle control; two-tailed unpaired T test). FIG. 6D and FIG. 6E are representative traces of Iheat recordings from TG neurons pretreated with PRL or vehicle (6D); and plotting Iheat as a function of temperature (FIG. 6E). PRL lowered the activation temperature threshold and increased the magnitude of Iheat. In addition, the magnitude of the Iheat evoked at 43° C. (I43) and 48° C. (I48) points in neurons pretreated with prolactin or vehicle was measured.
Patch Clamp Electrophysiology: All recordings were performed in whole-cell voltage-clamp (Vh=−60 mV) configuration. Recordings were acquired at 22-24° C. from the somata of neurons (15-45 pF) using an Axopatch200B amplifier and pCLAMP9.0 software (Axon Instruments, Union City, Calif.). Data were filtered at 0.5 kHz and sampled at 2 kHz. Borosilicate pipettes (Sutter, Novato, Calif.) were polished to resistances of 3-5 MΩ in pipette solution. Access resistance was compensated (40-80%) to 7-10 MΩ values when appropriate. Cell diameters were calculated using d=√[100*Cm/π], where d (μm) is cell diameter and Cm (pF) is membrane capacitance.
For the recording of heat-activated currents (Iheat), SES was heated on-line by a Peltier device (Warner Instruments, Hamden, Conn.) and locally delivered via a glass tube positioned in close proximity to the neuron. Temperature values were acquired with a thermister probe (0.5-1.5 mm size; Harvard Apparatus, Holliston, Mass.) situated at the orifice of the glass tube for local delivery of heated SES. […]

In the case of `C[C@]12CC[C@@H]3c4ccc(O)cc4CC[C@H]3[C@@H]1CC[C@@H]2O` [estradiol, 17-β-estradiol], the “Trk A 3′ mRNA sequence expression, GS (change cut-off)” value ([1]; probe set AA958274_at) is reported as “≧1.5”, the “Trk A 3′ mRNA sequence expression, SAM” value ([1]; probe set AA958274_at) is reported as 1.5 and the “Histidine ammonia lyase expression, GS (change cut-off)” value ([1]; probe set AB002393_at) is reported as “≧1.5”. For the same molecule, the “Histidine ammonia lyase expression, SAM” value ([1]; probe set AB002393_at) was 1.5, the “Ania-10 early gene mRNA, 3′ UTR expression, GS (change cut-off)” value ([1]; probe set AF050662UTR#1_at) was “≧1.5” and the “Ania-10 early gene mRNA, 3′ UTR expression, SAM” value ([1]; probe set AF050662UTR#1_at) was 1.6. For the same molecule, the “Ania-12 early gene mRNA, 3′ UTR expression, GS (change cut-off)” value ([1]; probe set AF050664UTR#1_at) was “≧1.5”, the “Ania-12 early gene mRNA, 3′ UTR expression, SAM” value ([1]; probe set AF050664UTR#1_at) was 1.5 and the “Insulin receptor substrate 2 (IRS-2) mRNA expression, GS (change cut-off)” value ([1]; probe set AF087674_at) was “≧1.5”. For the same molecule, the “Insulin receptor substrate 2 (IRS-2) mRNA expression, SAM” value ([1]; probe set AF087674_at) was 1.4, the “Interleukin 1 alpha expression, GS (change cut-off)” value ([1]; probe set D00403_g_at) was “≧1.5” and the “Interleukin 1 alpha expression, SAM” value ([1]; probe set D00403_g_at, false positive by RT-PCR) was 1.3. The “Aldosterone synthase, exon 9 expression, GS (change cut-off)” value ([1]; probe set D14097cds_s_at) was “≧1.5”, the “Aldosterone synthase, exon 9 expression, SAM” value ([1]; probe set D14097cds_s_at) was 1.5 and the “Cytochrome P450, 3a18 expression, GS (change cut-off)” value ([1]; probe set D38381_s_at) was “≧1.5”. The “Cytochrome P450, 3a18 expression, SAM” value ([1]; probe set D38381_s_at) was 1.3, the “Prepro bone inducing protein expression, GS (change cut-off)” value ([1]; probe set D49494cds_s_at) was “≧1.5” and the “Prepro bone inducing protein expression, SAM” value ([1]; probe set D49494cds_s_at) was 1.3. The “Prolactin expression, GS (change cut-off)” value ([1]; probe set E03166cds_s_at) was “≧1.5”, the “Prolactin expression, SAM” value ([1]; probe set E03166cds_s_at) was 6.9 and the “Nuclear receptor subfamily 1, Group D, member 1 expression, GS (change cut-off)” value ([1]; probe set M25801_g_at) was “≧1.5”. For the same molecule, the “Nuclear receptor subfamily 1, Group D, member 1 expression, SAM” value ([1]; probe set M25801_g_at) was 1.5, the “Protein phosphatase 3, catalytic subunit, beta isoform expression, GS (change cut-off)” value ([1]; probe set M31809_at) was “≦1.5” and the “Protein phosphatase 3, catalytic subunit, beta isoform expression, SAM” value ([1]; probe set M31809_at) was 0.6. The “Electron transf. flavoprotein (Etfa), mRNA expression, GS (change cut-off)” value ([1]; probe set Rc_AA894174_at) was “≦1.5”, the “Electron transf. flavoprotein (Etfa), mRNA expression, SAM” value ([1]; probe set Rc_AA894174_at) was 0.7 and the “Arachidonate 12-lipoxygenase expression, GS (change cut-off)” value ([1]; probe set S69383_at) was “≦1.5”. For the same molecule, the “Arachidonate 12-lipoxygenase expression, SAM” value ([1]; probe set S69383_at) was 0.5, the “Prolactin expression, GS (change cut-off)” value ([1]; probe set V01244_at) was “≧1.5” and the “Prolactin expression, SAM” value ([1]; probe set V01244_at) was 12.8. For the same molecule, the “Prolactin expression, GS (change cut-off)” value ([1]; probe set V01250cds_s_at) was “≧1.5”, the “Prolactin expression, SAM” value ([1]; probe set V01250cds_s_at) was 3 and the “Interleukin 5 (colony-stimulating factor, eosinophil) expression, GS (change cut-off)” value ([1]; probe set X54419cds_at) was “≧1.5”. The “Interleukin 5 (colony-stimulating factor, eosinophil) expression, SAM” value ([1]; probe set X54419cds_at) was 1.3, the “Cytosolic epoxide hydrolase expression, GS (change cut-off)” value ([1]; probe set X60328_at) was “≧1.5” and the “Cytosolic epoxide hydrolase expression, SAM” value ([1]; probe set X60328_at) was 1.7. For the same molecule, the “Similar to M. musculus pre 45S pre rRNA gene expression, GS (change cut-off)” value ([1]; probe set rc_AA859966_i_at) was “≧1.5”, the “Similar to M. musculus pre 45S pre rRNA gene expression, SAM” value ([1]; probe set rc_AA859966_i_at) was 4.1 and the “Cytochrome P450, subfamily IIC6 expression, GS (change cut-off)” value ([1]; probe set rc_AA945571_sat) was “≧1.5”. The “Cytochrome P450, subfamily IIC6 expression, SAM” value ([1]; probe set rc_AA945571_sat) was 1.7.

B1: PRL: Ovine PRL [oPRL-21, BIO] provided by NHPP; prolactin polypeptide hormone (protein, UniProt P01240 31-229, looked up)
Prolactin: TPVCPNGPGNCQVSLRDLFDRAVMVSHYIHNLSSEMFNEFDKRYAQGKGFITMALNSCHTSSLPTPEDKEQAQQTHHEVLMSLILGLLRSWNDPLYHLVTEVRGMKGVPDAILSRAIEIEEENKRLLEGMEMIFGQVIPGAKETEPYPVWSGLPSLQTKDEDARHSAFYNLLHCLRRDSSKIDTYLKLLNCRIIYNNNC
For B1, the “threshold temperature for Iheat activation” value (TG neurons; PRL 40 nM for 5 min, n=16, vehicle 41.9±0.67) was 36.8±0.58 °C, the “inward currents evoked by 43° C. (I43)” value (TG neurons; PRL pretreatment) was “significantly increased” and the “inward currents evoked by 48° C. (I48)” value (TG neurons; PRL pretreatment) was “significantly increased”.
